{"source": "paper PMC4254195", "about": "(European journal of medicinal chemistry, 2014)", "molecular_target": "T1, PTP1B (Homo sapiens, UniProt P18031)", "T1 sequence (P18031 1-435)": "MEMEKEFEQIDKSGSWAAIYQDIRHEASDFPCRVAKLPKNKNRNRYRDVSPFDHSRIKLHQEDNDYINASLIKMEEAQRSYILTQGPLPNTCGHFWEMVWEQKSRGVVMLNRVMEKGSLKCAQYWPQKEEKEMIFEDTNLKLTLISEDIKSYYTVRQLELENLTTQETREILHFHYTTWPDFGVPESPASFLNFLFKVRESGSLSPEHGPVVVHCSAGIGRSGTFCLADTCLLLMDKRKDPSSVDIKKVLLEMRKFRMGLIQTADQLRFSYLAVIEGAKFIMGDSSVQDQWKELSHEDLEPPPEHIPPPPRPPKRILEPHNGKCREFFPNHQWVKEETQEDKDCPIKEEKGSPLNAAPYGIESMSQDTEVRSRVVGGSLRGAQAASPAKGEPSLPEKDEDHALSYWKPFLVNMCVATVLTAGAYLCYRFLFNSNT", "experiment": "competition with BiPhYn-1 labelling of PTP1B in cells", "assay_type": "cell-based"}
{"compound": "C=CS(=O)(=O)c1ccccc1", "note": "[PVSF, phenyl vinyl sulfone]", "values": [{"measurement": "competition with BiPhYn-1 labelling of PTP1B in cells", "value": "exhibited loss of detection of oxidized PTP1B with BiPhYn-1 in the presence of increasing concentrations of PVSF"}]}
